Molecules are shown by their SMILES.

The first assay is described as follows: Inhibition of Leishmania mexicana GAPDH(glyceraldehyde-3-phosphate dehydrogenase).
Turning to `Nc1ncnc2c1nc(-c1cccs1)n2[C@@H]1O[C@H](CO)[C@@H](O)[C@H]1O`, the Ki (as a rule, a dissociation constant, usually derived from enzyme kinetics or from competition with a known ligand) was 300 µM.

Consider `CC(C)=CCNc1ncnc2c1nc(-c1cccs1)n2C1O[C@H](CO)[C@@H](O)[C@H]1O` (some centres undefined), for which affinity was put at a Ki of 9 µM.

Molecule `CC(C)Nc1nc2c(N)ncnc2n1C1O[C@H](CO)[C@@H](O)[C@H]1O` (some centres undefined) yielded a Ki of 1500 µM.

As to `NC(=O)c1ccccc1C(=O)NC[C@H]1OC(n2cnc3c(NCc4ccccc4)ncnc32)[C@H](O)[C@@H]1O` (some centres undefined), the inhibition constant Ki was found to be 800 µM.

`Nc1ncnc2c1ncn2C1O[C@H](CNC(=O)c2ccccc2)[C@@H](O)[C@H]1O` (some centres undefined): the inhibitory constant (Ki) is 3300 µM.

`O=C1c2ccccc2C(=O)N1C[C@H]1OC(n2cnc3c(NCc4ccccc4)ncnc32)[C@H](O)[C@@H]1O` (some centres undefined) returned a Ki of 4000 µM.

As to `Nc1ncnc2c1ncn2[C@@H]1O[C@H](CO)[C@@H](O)[C@H]1O` [ADENOSINE], the Ki is 2500 µM.

`OC[C@H]1O[C@@H](n2cnc3c(NCc4ccccc4)ncnc32)[C@H](O)[C@@H]1O` [N6-BENZYLADENOSINE] gave a Ki of 2800 µM.

A further assay is described as follows: Compound was tested for the inhibition of Leishmania mexicana GAPDH(glyceraldehyde-3-phosphate dehydrogenase).
`CC(C)=CCNc1ncnc2c1nc(-c1cccs1)n2C1O[C@H](CO)[C@@H](O)[C@H]1O` (some centres undefined): affinity was put at a Ki of 18 µM.

For the origin of these results see ChEMBL document CHEMBL1130706, “Synthesis and structure-activity relationships of adenosine analogs as inhibitors of trypanosomal glyceraldehyde-3-phosphate dehydrogenase. Modifications at positions 5' and 8” (Bioorg Med Chem Lett, 1998).
